According to publication PMC7217877, “N-AS-triggered SPMs are direct regulators of microglia in a model of Alzheimer’s disease” (Nature Communications, 2020):
Several values for one entry are separate records, joined by “and”; a condition that tells them apart may be missing. Identical values can stand only once.

System: APP/PS1 mice
Assay: lipid mediator-SPM profile of microglia isolated from treated mice (LC-MS/MS, Supplementary Table 2, Fig 4e-g)
Format: in vivo, mouse
Design: 15R-LXA4 level in microglia (sFig 4g) / RvE1 level in microglia (sFig 4g) / RvD1 level in microglia (sFig 4g): unit not given here
Method: Lipid mediators metabololipidomics were performed according to previously described procedures with minor modifications[4],[30]. To confirm the biosynthesis of lipid mediators by recombinant COX2 treated with N-AS or aspirin, 10 U of human recombinant COX2 (Cayman, 60122) was incubated in the presence of 500 μM aspirin (Sigma-Aldrich, A5376) or N-AS (Sigma-Aldrich, 01912) at 37 °C for 30 min. The enzyme was filtered with a Microcon column (Millipore) to remove unreacted aspirin or N-AS and was then resuspended in 0.1 M Tris-HCl (pH 8.0). Next, 500 μM phenol (Sigma-Aldrich) and 1 μM hematin-porcine (Sigma-Aldrich) were added immediately before incubation with 100 μM AA, EPA or DHA (Cayman) at 37 °C for 2 h, respectively. The mixtures were incubated with 30 U of human 5-LOX (Cayman, 60402) containing 2 mM CaCl2 (Sigma-Aldrich), 1 mM ATP (Amresco) and 5 μM 13-HpODE (Cayman) as activators. Also, to validate the importance of residue S565 for N-AS-acetylation of COX2 and production of SPMs, 10 U of the COX2 S565A mutant was used in the above-described method. In addition, to confirm SPM generation in neurons and microglia, these cells were treated with Aβ and sonicated in neuronal and glial culture medium. […] To evaluate the relationship of N-AS and SPM production in microglia, microglia were isolated from WT, APP/PS1, and APP/PS1 treated with N-AS mice at 9 months of age. The microglia were sonicated and resuspended in microglial culture medium. The supernatants were incubated with 100 μM AA, EPA, and DHA (Cayman) at 37 °C for 2 h. A 50 μl aliquot of the mixture from each cell lysate was added to a 250 μl aliquot of 1 ng ml^−1 of 15S-LXA4-d5 (internal standard, Cayman) methanol solution. After vortexing for 10 min and centrifuging at 15,974×g for 5 min, the supernatant was subjected to the analysis of the lipid mediators using an Agilent 6470 Triple Quad LC-MS/MS system (Agilent) coupled to an Agilent 1290 HPLC system. Chromatographic separation was achieved using a Synergi Polar RP (4 μm, 2.0 mm i.d. × 150 mm, Phenomenex). Analytes were eluted with a mobile phase consisting of water: formic acid (100:0.1 v/v) (phase A) and methanol: formic acid (100:0.1 v/v) (phase B) in gradient elution mode for 23 min a flow rate of 0.2 ml min^−1. The elution gradient was as follows: from 0 to 0.1 min the content of phase A was 37% and the content of phase A was decreased to 10% and maintained for 5.5 min. The content of phase A was increased back to 37% at 6.0 min and maintained for 23 min. Quantification was carried out using MRM in negative ionization mode and collision energy of 10–15 eV. The mass transition from Q1 to Q3 is shown in Supplementary Table 2. In this study, the peak areas for all components were automatically integrated using MassHunter B 06.00.
Adult neurons and microglia were isolated from the mice brain as previously described. In brief, the cortex of WT (1, 3, 5, or 9-months-old), APP/PS1 (1, 3, 5, or 9-months-old), APP/PS1 treated with N-AS (9-months-old) or APP/PS1 treated with aspirin (9-months-old) mice were minced in Hibernate A (Gibco)/B27 (Invitrogen) medium and dissociated using papain (Worthington) solution. After tissue trituration, cells were separated by Optiprep (Sigma-Aldrich) density gradient centrifugation. The purity of the fractionated neurons and microglia were acutely confirmed by neuronal (NeuN, mouse, 1:200, Millipore, MAB377) and microglial (Iba1, rabbit, 1:1000, Wako, 019-19941) markers and the isolated neurons and microglia were acutely analyzed for the acetylation assay and lipid mediators metabololipidomics.
Transgenic mouse lines over-expressing the hAPP695swe (APP) and presenilin-1M146V (PS1) mutations were originated from GlaxoSmithKline (Harlow, UK)[32] and maintained as described previously. We purchased 5×FAD mice from Jackson Labs (Stock number. 34840-JAX). Because APP/PS1 and 5xFAD mice show sex differences in disease progression, we used only male mice. […]

[1] = APP/PS1 + N-AS, individual samples

CCCCCCCCCCCCC/C=C/[C@@H](O)[C@H](CO)NC(C)=O [N-AS, N-((2S,3R,E)-1,3-Dihydroxyoctadec-4-en-2-yl)acetamide]
15R-LXA4 level in microglia (sFig 4g) [1]: 4570 and 5879.36 and 4407.58 and 3923.74 and 3772.92 and 3755.88 and 4463.12 and 4253.3 | RvD1 level in microglia (sFig 4g) [1]: 122.239 and 113.373 and 105 and 174.655 and 77.0631 and 102.088 and 125.141 and 80.0045 | RvE1 level in microglia (sFig 4g) [1]: 121.276 and 201.615 and 123.367 and 132.221 and 152.593 and 109.936 and 221.33 | 11-HEPE in mouse microglia (APP/PS1/N-AS, mean±s.e.m., n=6): 8016.0±190.1 pg/1*106cell | 11-HETE in mouse microglia (APP/PS1/N-AS, mean±s.e.m., n=6): 8870.6±557.1 pg/1*106cell | 13-HDHA in mouse microglia (APP/PS1/N-AS, mean±s.e.m., n=6): 6824.5±237.7 pg/1*106cell | 15-HEPE in mouse microglia (APP/PS1/N-AS, mean±s.e.m., n=6): 5286.6±214.8 pg/1*106cell | 15-HETE in mouse microglia (APP/PS1/N-AS, mean±s.e.m., n=6): 33117.1±1929.6 pg/1*106cell | 15R-LXA4 in mouse microglia (APP/PS1/N-AS, mean±s.e.m., n=6): 4378.2±241.8 pg/1*106cell | 17-HDHA in mouse microglia (APP/PS1/N-AS, mean±s.e.m., n=6): 86224.5±10404.3 pg/1*106cell | 18-HEPE in mouse microglia (APP/PS1/N-AS, mean±s.e.m., n=6): 31965.9±2934.1 pg/1*106cell | AA in mouse microglia (APP/PS1/N-AS, mean±s.e.m., n=6): 39563.5±824.8 pg/1*106cell | DHA in mouse microglia (APP/PS1/N-AS, mean±s.e.m., n=6): 37384.7±1351.7 pg/1*106cell | EPA in mouse microglia (APP/PS1/N-AS, mean±s.e.m., n=6): 406.6±21.1 pg/1*106cell | LTB4 in mouse microglia (APP/PS1/N-AS, mean±s.e.m., n=6): 876.5±71.9 pg/1*106cell | PGE3/PGD3 in mouse microglia (APP/PS1/N-AS, mean±s.e.m., n=6): 2590.3±243.8 pg/1*106cell | PGH2/PGE2 in mouse microglia (APP/PS1/N-AS, mean±s.e.m., n=6): 3862.0±266.4 pg/1*106cell | RvD1 in mouse microglia (APP/PS1/N-AS, mean±s.e.m., n=6): 112.4±10.9 pg/1*106cell | RvE1 in mouse microglia (APP/PS1/N-AS, mean±s.e.m., n=6): 151.8±16.3 pg/1*106cell | TxB3 in mouse microglia (APP/PS1/N-AS, mean±s.e.m., n=6): 1209.9±70.0 pg/1*106cell
